“And” between values parts separate entries of the source, which are not always exact repeats. Identical values can stand only once. Like-named read-outs stand apart in the source and are kept apart here.
Legend:
sperm = details: background statement; cited from earlier work
[1] = cited from earlier work; for Expected Absorption Maxima: solvent water
[2] = tested on: X- and Y-chromosome bearing bovine sperm stained with Hoechst 33342; assay: Split quality: height of peak divided by height of valley (PV), flow cytometry of stained bovine sperm; type: cell-based; details: for split enhancing effect compared to control, in words / peak to valley ratio, average 8 bulls: Ex 10; for split enhancing effect compared to control, in words: 15, 45, 125 μM, averaged over 8 bulls; for peak to valley ratio, average 8 bulls: Hoechst 64 μM; for Height of Peak/Height of Valley: Ex 5; for PV: Ex 6, resulting pH 6.70
[3] = tested on: membrane compromised bovine sperm stained with Hoechst 33342; assay: Dead quenching: dead gate intensity divided by live gate intensity, flow cytometry of stained bovine sperm; type: cell-based; details: for dead quenching capacity of split enhancing dye in combination with yellow food dye No. 6 (FIG. 8): Ex 10, Y6 25 μM; for Dead Intensity (dead gate intensity divided by live gate intensity): Ex 5; for Intensity (dead gate): Hoechst 48 μM
From the text: FIG. 4 illustrates an example bivariate plot and univariate histogram of the parameters measured during sex selection by a FACS on a flow cytometer. […] Without a dead quenching dye, both populations of sperm would overlap to a large extent, with unpredictable variations in the dead sperm.
The entire ejaculate of sperm was suspended in first staining buffer, specifically a 7.4 pH TALP described in TABLE 1, to a concentration of 160×10^6 sperm per mL (determined on nucleocounter) and divided into three aliquots of about 20 mL into 50 mL Falcon tubes and pre-warmed for 10 minutes at 34° C. The DNA selective fluorescent dye, Hoechst 33342, was added and samples were held at 34° C. for 60 minutes. 3 different Hoechst 33342 Stain Levels were used=12 μL, 14 μL and 16 μL per 2 mL (effective concentrations of 48 μM, 56 μM, 64 μM).
Preparation of the second buffer including the dead quenching dye—A 2 L bag of TALP, described in TABLE 1, was adjusted to pH 5.60 using HCl and then sterile filtered. […] For each of the four dyes tested (R40—red food dye No. 40, Y5—yellow food dye No. 5, Y6—yellow food dye No. 6 and PR—phenol red), an appropriate number of milligrams of each powder was placed in a Erlenmeyer Flask and then an exact amount of TALP pH 5.60 was added to create a […] concentration of the dye. The result was a working TALP stock for each dye with a 100% (125 μM) relative amount of dye 50% relative (62.5 μM) and 20% relative (25 μM) solutions were made by dilution of 100% by TALP pH 5.60.
After this “bulk” staining for 60 minutes, 1 mL aliquots of stained sperm were combined with 1 mL aliquots of the second buffer including the dead quenching dyes. Samples sat for approximately 30 minutes at room temperature before being analyzed on a MoFlo SX (Beckman Coulter, USA) sperm sorting flow cytometer. Event rates were held as close to 13,000 as possible at the point of data acquisition.
The total number of individual treatments was 42 tubes, each containing 2 mL of stained sample. The alignment of the sorter was established using nuclei and confirmed with live sample from the 50% Red 40 series. Once good alignment was established, each tube was placed on the sorter long enough to establish a stabile dead gate population (about 30 seconds) and then a screenshot was taken and saved as a .jpeg image. This approach of rapidly documenting each sample is used to assure the most consistent alignment between all samples. Realignment of sorter will not cause differences in the intensities of live and dead gate populations but will cause differences in split quality.
FIG. 4 illustrates an example histogram. The ratio of dead gate intensity divided by live gate intensity is created by dividing the distance “A” by the distance “B” shown as a percentage. Lower values mean higher levels of quenching. The ratio of peak height divided by valley height is created by dividing the distance “C” by the distance “D”. A value of 1.00 means “no split” while higher values mean “better splits”. […]

[4] = split enhancing dye 15 μM, 30 Min incubation, Y6 25 μM in second buffer
[5] = split enhancing dye 15 μM, 45 Min, Y6 25 μM
[6] = split enhancing dye 15 μM, 60 Min, Y6 25 μM
[7] = split enhancing dye 15 μM, 75 Min, Y6 25 μM
[8] = split enhancing dye 45 μM, 30 Min, Y6 25 μM
[9] = split enhancing dye 45 μM, 45 Min, Y6 25 μM
[10] = split enhancing dye 45 μM, 60 Min, Y6 25 μM
[11] = split enhancing dye 45 μM, 75 Min, Y6 25 μM
[12] = split enhancing dye 125 μM, 30 Min, Y6 25 μM
[13] = split enhancing dye 125 μM, 45 Min, Y6 25 μM
[14] = split enhancing dye 125 μM, 60 Min, Y6 25 μM
[15] = split enhancing dye 125 μM, 75 Min, Y6 25 μM
[16] = shorter-wavelength local maximum
[17] = dye 62.5 μM, Hoechst 12 μL/2 mL
[18] = dye 62.5 μM, Hoechst 14 μL/2 mL
[19] = dye 62.5 μM, Hoechst 16 μL/2 mL

SMILES: CC[N+](C)(CC)CCC[n+]1c(-c2ccccc2)c2cc(N)ccc2c2ccc(N)cc21.[I-].[I-] [propidium iodine]
- toxicity to sperm (sperm): toxic to sperm

SMILES: Cc1c(C(=O)O)c(O)cc2c1C(=O)c1c(O)c(C3O[C@H](CO)[C@@H](O)[C@H](O)[C@H]3O)c(O)c(O)c1C2=O (stereo in doubt) [Red 4, carmine]
- (local) maximum absorption wavelength, as believed ([1]; phenol red in the red molecular form, listed as red food dye No. 4): 520 nm and 555 nm
- Expected Absorption Maxima ([1]; listed as Red 4 (natural), longer-wavelength local maximum): 555 nm
- Expected Absorption Maxima ([1]; listed as Red 4 (natural), shorter-wavelength local maximum): 520 nm
- split enhancing effect compared to control, in words [2]: distinct improvements at all concentrations and at all times
- peak to valley ratio, average 8 bulls [2, 4]: 1.09
- peak to valley ratio, average 8 bulls [2, 5]: 1.44
- peak to valley ratio, average 8 bulls [2, 6]: 1.79
- peak to valley ratio, average 8 bulls [2, 7]: 1.91
- peak to valley ratio, average 8 bulls [2, 8]: 1.18
- peak to valley ratio, average 8 bulls [2, 9]: 1.50
- peak to valley ratio, average 8 bulls [2, 10]: 1.76
- peak to valley ratio, average 8 bulls [2, 11]: 1.94
- peak to valley ratio, average 8 bulls [2, 12]: 1.13
- peak to valley ratio, average 8 bulls [2, 13]: 1.45
- peak to valley ratio, average 8 bulls [2, 14]: 1.81
- peak to valley ratio, average 8 bulls [2, 15]: 1.95
- dead quenching capacity of split enhancing dye in combination with yellow food dye No. 6 (FIG. 8) [3]: significant increase in quenching the dead subpopulation

SMILES: O=S(=O)([O-])c1ccc2c(N=Nc3ccc(S(=O)(=O)[O-])c4ccccc34)c(O)c(S(=O)(=O)[O-])cc2c1.[Na+].[Na+].[Na+] [Red 2]
- Expected Absorption Maxima [1, 16]: 520 nm
- split enhancing effect compared to control, in words [2]: did not provide a split enhancing, or noise reducing effect
- peak to valley ratio, average 8 bulls [2, 4]: 1.06
- peak to valley ratio, average 8 bulls [2, 5]: 1.15
- peak to valley ratio, average 8 bulls [2, 6]: 1.54
- peak to valley ratio, average 8 bulls [2, 7]: 1.73
- peak to valley ratio, average 8 bulls [2, 8]: 1.00
- peak to valley ratio, average 8 bulls [2, 9]: 1.05
- peak to valley ratio, average 8 bulls [2, 10]: 1.12
- peak to valley ratio, average 8 bulls [2, 11]: 1.38
- peak to valley ratio, average 8 bulls [2, 12]: 1.00
- peak to valley ratio, average 8 bulls [2, 13]: 1.00
- peak to valley ratio, average 8 bulls [2, 14]: 1.00
- peak to valley ratio, average 8 bulls [2, 15]: 1.00
- dead quenching capacity of split enhancing dye in combination with yellow food dye No. 6 (FIG. 8) [3]: strong dead quenching capacity

SMILES: O=C([O-])C1=NN(c2ccc(S(=O)(=O)[O-])cc2)C(=O)/C1=N/Nc1ccc(S(=O)(=O)[O-])cc1.[Na+].[Na+].[Na+] [Yellow 5, Trisodium (4E)-5-oxo-1-(4-sulfonatophenyl)-4-[(4-sulfonatophenyl)hydrazono]-3-pyrazolecarboxylate]
- Expected Absorption Maxima [1, 16]: 422 nm
- Height of Peak/Height of Valley ([2]; dye 25 μM, Average of 12 and 14 μL series): 1.72
- Height of Peak/Height of Valley ([2]; dye 25 μM, Hoechst 12 μL/2 mL): 1.90
- Height of Peak/Height of Valley ([2]; dye 25 μM, Hoechst 14 μL/2 mL): 1.54
- Height of Peak/Height of Valley ([2]; dye 25 μM, Hoechst 16 μL/2 mL): 1.00
- Height of Peak/Height of Valley ([2]; dye 62.5 μM, Average of 12 and 14 μL series): 1.65
- Height of Peak/Height of Valley [2, 17]: 1.60
- Height of Peak/Height of Valley [2, 18]: 1.70
- Height of Peak/Height of Valley [2, 19]: 1.00
- Height of Peak/Height of Valley ([2]; dye 125 μM, Average of 12 and 14 μL series): 1.82
- Height of Peak/Height of Valley ([2]; dye 125 μM, Hoechst 12 μL/2 mL): 1.72
- Height of Peak/Height of Valley ([2]; dye 125 μM, Hoechst 14 μL/2 mL): 1.92
- Height of Peak/Height of Valley ([2]; dye 125 μM, Hoechst 16 μL/2 mL): 1.03
- PV ([2]; dye 125 μM, Hoechst 48 μM): 1.00
- PV ([2]; dye 250 μM, Hoechst 48 μM): 1.00
- PV ([2]; dye 500 μM, Hoechst 48 μM): 1.00
- PV ([2]; dye 750 μM, Hoechst 48 μM): 1.00
- PV ([2]; dye 875 μM, Hoechst 48 μM): 1.00
- PV ([2]; dye 1250 μM, Hoechst 48 μM (understained)): 1.00
- Dead Intensity (dead gate intensity divided by live gate intensity) ([3]; dye 25 μM, Average of Hoechst levels): 90%
- Dead Intensity (dead gate intensity divided by live gate intensity) ([3]; dye 25 μM, Hoechst 12 μL/2 mL): 90%
- Dead Intensity (dead gate intensity divided by live gate intensity) ([3]; dye 25 μM, Hoechst 14 μL/2 mL): 90%
- Dead Intensity (dead gate intensity divided by live gate intensity) ([3]; dye 25 μM, Hoechst 16 μL/2 mL): 90%
- Dead Intensity (dead gate intensity divided by live gate intensity) ([3]; dye 62.5 μM, Average of Hoechst levels): 74%
- Dead Intensity (dead gate intensity divided by live gate intensity) [3, 17]: 74%
- Dead Intensity (dead gate intensity divided by live gate intensity) [3, 18]: 77%
- Dead Intensity (dead gate intensity divided by live gate intensity) [3, 19]: 70%
- Dead Intensity (dead gate intensity divided by live gate intensity) ([3]; dye 125 μM, Average of Hoechst levels): 57%
- Dead Intensity (dead gate intensity divided by live gate intensity) ([3]; dye 125 μM, Hoechst 12 μL/2 mL): 54%
- Dead Intensity (dead gate intensity divided by live gate intensity) ([3]; dye 125 μM, Hoechst 14 μL/2 mL): 63%
- Dead Intensity (dead gate intensity divided by live gate intensity) ([3]; dye 125 μM, Hoechst 16 μL/2 mL): 55%
- amount of dye needed for a similar dead gate intensity ratio as red food dye No. 40 and yellow food dye No. 6 ([3]; Ex 6): about five times as much
- Intensity (dead gate) ([3]; Ex 6, dye 125 μM, resulting pH 6.70): 63%
- Intensity (dead gate) ([3]; Ex 6, dye 250 μM, resulting pH 6.70): 48%
- Intensity (dead gate) ([3]; Ex 6, dye 500 μM, resulting pH 6.70): 43%
- Intensity (dead gate) ([3]; Ex 6, dye 750 μM, resulting pH 6.70): <30%
- Intensity (dead gate) ([3]; Ex 6, dye 875 μM, resulting pH 6.70): <30%
- Intensity (dead gate) ([3]; Ex 6, dye 1250 μM, second buffer pH 5.60 (resulting pH 6.70)): <30%

Source: patent US9140688B2, “Sperm staining and sorting methods” (INGURAN, LLC, priority 2011, dated 2015)
